From patent US11840686B2, “Modulation of prekallikrein (PKK) expression” (Ionis Pharmaceuticals, Inc., priority 2013, dated 2023)
Strand notation (5' to 3'): a small letter for the sugar, then the base; units joined by * are phosphorothioate-linked, units joined directly phosphodiester-linked; [ ] holds rarer units or linkages, { } end groups; capitals alone tell only the bases. e = 2'-O-(2-methoxyethyl) (MOE); k = constrained ethyl (cEt); [5mC] = 5-methylcytosine; d = 2'-deoxy (DNA)

Tested on: human PKK mRNA
Assay: Antisense inhibition of human PKK mRNA in HepaRG cells, 1,000 nM, MOE/deoxy/cEt oligonucleotides (Example 3)
Type: cell-based
Procedure, shortened: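 HepaRG cells at 20,000 per well electroporated with 1,000 nM 16-mer MOE/cEt/deoxy gapmers (phosphorothioate, 5-methylcytosine). After about 24 h, PKK mRNA measured by qRT-PCR with primer probe set RTS3454, normalized to RIBOGREEN total RNA. Reported as percent inhibition versus untreated cells.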

[1] = Table 30, human PKK mRNA, HepaRG cells, 1,000 nM antisense oligonucleotide
[2] = HepaRG cells, electroporation with 1,000 nM antisense oligonucleotide, approximately 24 hours, primer probe set RTS3454, relative to untreated control cells, experiment of Table 24
[3] = Table 21 experiment, HepaRG cells, electroporation with 1,000 nM antisense oligonucleotide, approx. 24 hours, PKK mRNA by RT-PCR (RTS3454), relative to untreated control cells
[4] = Table 20, HepaRG cells, electroporation with 1,000 nM antisense oligonucleotide, approximately 24 hours, PKK mRNA by RT-PCR (RTS3454), relative to untreated control cells
[5] = Table 22 experiment, HepaRG cells, electroporation with 1,000 nM antisense oligonucleotide, approx. 24 hours, PKK mRNA by RT-PCR (RTS3454), relative to untreated control cells
[6] = Table 27, HepaRG cells, 1,000 nM antisense oligonucleotide, human PKK mRNA
[7] = Table 19, HepaRG cells, electroporation with 1,000 nM antisense oligonucleotide, approximately 24 hours, PKK mRNA by RT-PCR (RTS3454), relative to untreated control cells
[8] = PKK mRNA, HepaRG cells, 1,000 nM antisense oligonucleotide, Table 31
[9] = Table 28, HepaRG cells, 1,000 nM antisense oligonucleotide, human PKK mRNA
[10] = HepaRG cells, electroporation with 1,000 nM antisense oligonucleotide, approx. 24 hours, PKK mRNA by RT-PCR (RTS3454), relative to untreated control cells, Table 26 experiment
[11] = HepaRG cells, electroporation with 1,000 nM antisense oligonucleotide, approximately 24 hours, primer probe set RTS3454, relative to untreated control cells, experiment of Table 23

## 548428 (antisense eT*eA*kA*d[5mC]*dT*dA*dT*dA*dA*d[5mC]*dA*dG*dT*kA*kT*e[5mC]) [compound 548428]
[1]
  % inhibition: 0%

## 548068 (e[5mC]*eA*kA*d[5mC]*dA*dG*dT*dT*dG*dG*dT*dA*dT*kA*kA*eA; antisense) [compound 548068]
[2]
  % inhibition: 0%

## 547820 (eT*e[5mC]*kA*dT*dT*dG*dA*dT*dT*dG*dA*dA*d[5mC]*kT*kT*eG; antisense) [compound 547820]
[3]
  % inhibition: 0%

## 547869 (antisense eA*eA*k[5mC]*d[5mC]*dT*dT*dA*dG*dA*d[5mC]*dA*d[5mC]*dA*kT*kT*eA) [compound 547869]
[4]
  % inhibition: 45%
[5]
  % inhibition: 77%

## 548332 (antisense eG*eA*kT*dG*dA*dA*dA*dT*dG*dT*dG*d[5mC]*dA*k[5mC]*k[5mC]*eT) [compound 548332]
[6]
  % inhibition: 46%

## 548145 (eA*eT*kG*d[5mC]*dA*dA*dA*dG*dA*dA*dG*dA*dT*kG*k[5mC]*e[5mC]; antisense) [compound 548145]
[7]
  % inhibition: 63%

## 548052 (e[5mC]*eA*kA*dA*dG*dG*dA*dG*d[5mC]*d[5mC]*dT*dG*dG*kA*kG*eT; antisense) [compound 548052]
[2]
  % inhibition: 43%

## 548207 (e[5mC]*eT*kG*dG*dT*d[5mC]*dA*dA*dT*d[5mC]*dT*dG*dA*k[5mC]*kT*eA; antisense) [compound 548207]
HepaRG cells, electroporation with 1,000 nM antisense oligonucleotide, approx. 24 hours, PKK mRNA by RT-PCR (RTS3454), relative to untreated control cells, Table 25 experiment
  % inhibition: 60%

## 547886 (e[5mC]*eG*kG*dT*dA*d[5mC]*dT*d[5mC]*dT*dG*d[5mC]*d[5mC]*dT*kT*kG*eT; antisense) [compound 547886]
[4]
  % inhibition: 97%
[5]
  % inhibition: 89%

## 548397 (eG*eG*kA*dG*d[5mC]*dA*dG*dT*dG*d[5mC]*dA*dG*dG*kT*kA*eA; antisense) [compound 548397]
[1]
  % inhibition: 1%

## 547890 (eT*eT*kG*dT*dT*d[5mC]*d[5mC]*dG*dG*dT*dA*d[5mC]*dT*k[5mC]*kT*eG; antisense) [compound 547890]
[4]
  % inhibition: 97%
[5]
  % inhibition: 90%

## 548353 (antisense e[5mC]*eT*kG*d[5mC]*dT*dG*dG*dT*dT*dG*dA*dG*dA*kA*kT*e[5mC]) [compound 548353]
[6]
  % inhibition: 48%

## 548680 (antisense eG*e[5mC]*k[5mC]*d[5mC]*d[5mC]*dT*d[5mC]*dT*dT*dA*dA*dA*dT*kA*kG*e[5mC]) [compound 548680]
[8]
  % inhibition: 9%

## 548481 (eG*eT*kT*d[5mC]*d[5mC]*d[5mC]*dT*dG*dA*dG*dG*dA*dA*k[5mC]*kG*eG; antisense) [compound 548481]
[9]
  % inhibition: 2%

## 548054 (eA*eA*kT*dT*d[5mC]*dA*dA*dA*dG*dG*dA*dG*d[5mC]*k[5mC]*kT*eG; antisense) [compound 548054]
[2]
  % inhibition: 45%

## 548473 (e[5mC]*e[5mC]*kA*dA*d[5mC]*d[5mC]*dT*dT*d[5mC]*d[5mC]*d[5mC]*dA*dA*kT*k[5mC]*eT; antisense) [compound 548473]
[9]
  % inhibition: 0%

## 548617 (antisense eG*eA*kT*dT*dG*dG*dT*dG*dG*d[5mC]*dG*dG*dG*kA*kT*e[5mC]) [compound 548617]
[8]
  % inhibition: 44%

## 548380 (eG*e[5mC]*k[5mC]*d[5mC]*dA*dG*dT*dT*dT*dT*dG*dG*d[5mC]*kA*kA*e[5mC]; antisense) [compound 548380]
[6]
  % inhibition: 7%

## 548358 (antisense eA*eT*kT*dT*dG*dG*dG*d[5mC]*d[5mC]*dT*dA*dG*dT*kG*kG*eT) [compound 548358]
[6]
  % inhibition: 0%

## 548280 (antisense e[5mC]*eT*k[5mC]*d[5mC]*d[5mC]*dT*d[5mC]*dT*dG*dT*dA*dA*dT*kG*kA*eT) [compound 548280]
[10]
  % inhibition: 43%

## 548354 (antisense eA*eT*kG*dT*d[5mC]*d[5mC]*d[5mC]*d[5mC]*dA*dG*dT*dG*dG*kA*kA*eG) [compound 548354]
[6]
  % inhibition: 41%

## 548283 (antisense eG*eG*k[5mC]*dT*dT*dA*dT*dG*d[5mC]*dT*d[5mC]*d[5mC]*dT*kT*k[5mC]*eT) [compound 548283]
[10]
  % inhibition: 56%

## 547795 (antisense eA*e[5mC]*k[5mC]*dT*d[5mC]*dT*dG*dA*dA*dG*dA*dA*dG*kG*k[5mC]*eG) [compound 547795]
[3]
  % inhibition: 66%

## 548436 (antisense eA*eT*kA*dT*d[5mC]*dA*d[5mC]*dT*dG*dT*dA*d[5mC]*d[5mC]*kT*kG*eT) [compound 548436]
[1]
  % inhibition: 8%

## 548359 (antisense e[5mC]*e[5mC]*kT*dA*dG*dT*d[5mC]*d[5mC]*dT*d[5mC]*dA*dA*dG*kT*kT*eT) [compound 548359]
[6]
  % inhibition: 0%

## 548470 (eG*eG*kT*dG*dG*dA*dA*dT*dG*dT*d[5mC]*dA*dT*kG*kG*e[5mC]; antisense) [compound 548470]
[9]
  % inhibition: 56%

## 548252 (antisense eA*e[5mC]*kT*d[5mC]*dG*d[5mC]*d[5mC]*dT*dT*dT*dG*dT*dG*kA*kT*eG) [compound 548252]
[10]
  % inhibition: 33%

## 548598 (eG*e[5mC]*kG*d[5mC]*d[5mC]*dA*dT*d[5mC]*dT*dG*d[5mC]*d[5mC]*d[5mC]*kT*kG*eT; antisense) [compound 548598]
HepaRG cells, 1,000 nM antisense oligonucleotide, Table 29
  % inhibition: 50%

## 548312 (eA*eT*kT*dT*dG*dG*d[5mC]*d[5mC]*d[5mC]*dT*dG*dA*dG*k[5mC]*k[5mC]*e[5mC]; antisense) [compound 548312]
[6]
  % inhibition: 0%

## 548243 (eA*eT*kG*d[5mC]*dA*dT*dA*d[5mC]*dT*d[5mC]*dG*d[5mC]*d[5mC]*kT*kT*eT; antisense) [compound 548243]
[10]
  % inhibition: 0%

## 547983 (antisense eG*eA*kA*dT*d[5mC]*dA*dT*d[5mC]*dT*dT*dT*dG*dT*kG*k[5mC]*eA) [compound 547983]
[11]
  % inhibition: 56%

## 547944 (eA*e[5mC]*kT*dT*dG*dG*dT*dG*dT*dG*d[5mC]*d[5mC]*dA*k[5mC]*kT*eT; antisense) [compound 547944]
[11]
  % inhibition: 54%

## 547818 (eG*eA*kT*dT*dG*dA*dA*d[5mC]*dT*dT*dG*d[5mC]*dT*kG*kG*eA; antisense) [compound 547818]
[3]
  % inhibition: 4%

## 548394 (eG*eG*k[5mC]*dA*dG*dG*dA*dG*dA*d[5mC]*dT*d[5mC]*d[5mC]*kG*kT*eG; antisense) [compound 548394]
[1]
  % inhibition: 25%

## 548075 (eA*e[5mC]*k[5mC]*dT*dT*dT*d[5mC]*dT*d[5mC]*d[5mC]*dT*dT*d[5mC]*kG*kA*eG; antisense) [compound 548075]
[7]
  % inhibition: 0%

## 548517 (antisense e[5mC]*eG*kG*dA*d[5mC]*dA*dA*dG*d[5mC]*d[5mC]*dT*dT*dA*k[5mC]*kA*eG) [compound 548517]
[9]
  % inhibition: 43%

## 548361 (antisense e[5mC]*eT*kT*dA*dT*d[5mC]*dA*dG*dT*d[5mC]*d[5mC]*d[5mC]*dA*kG*kT*e[5mC]) [compound 548361]
[6]
  % inhibition: 52%

## 548000 (antisense e[5mC]*e[5mC]*k[5mC]*dT*dT*dG*dT*dG*dT*d[5mC]*d[5mC]*d[5mC]*dA*kT*kA*e[5mC]) [compound 548000]
[2]
  % inhibition: 54%

## 547883 (eA*e[5mC]*kT*dG*dG*d[5mC]*dA*dG*d[5mC]*dG*dA*dA*dT*kG*kT*eT; antisense) [compound 547883]
[4]
  % inhibition: 99%
[5]
  % inhibition: 0%
